Measurements as given in article PMC9841524, “Structure-Based Rational Design of Small α-Helical Peptides with Broad-Spectrum Activity against Multidrug-Resistant Pathogens” (Journal of Medicinal Chemistry, 2022).
Where no end group is shown, it is not given here.

System: S. aureus (ATCC 29213)
Assay: MIC, standard microtiter dilution (CLSI)
Format: cell-based
Conditions: broth microdilution (CLSI), CAMHB, 10^6 CFU/mL, 37 °C, 24 h; highest MIC of three independent experiments in triplicate
Method: (§1) Description of the characteristics and growth conditions of various bacterial strains used in the study are provided in the Supporting Information (Table S3). Antibacterial susceptibility testing was carried out using a standard microtiter dilution method recommended by the clinical and laboratory standard institute (CLSI) and measured as a minimum inhibitory concentration (MIC), the lowest peptide concentration that inhibited bacterial growth. Briefly, the overnight grown cultures in the recommended broth for each bacterial strain were diluted in cation-adjusted Mueller Hinton Broth (CAMHB) to give an inoculum of 10^6 colony-forming units (CFU)/mL. A 2-fold serially diluted test peptide solution (100 μL) was added to the microtiter plates. After adding bacterial suspension (100 μL), the plates were incubated at 37 °C for 24 h, and the MICs were determined. The same protocol was used to determine the MICs in the presence of salts and serum except using the media supplemented with various cationic salts (150 mM NaCl, 4.5 mM KCl, 6 mM NH4Cl, 1 mM MgCl2, and 2 mM CaCl2) or 25% FBS. The data was acquired from three independent assays performed in triplicate.
(§2) The bacterial strains employed in this study were obtained from the American Type Culture Collection (ATCC). Each strain was propagated as recommended by the ATCC, and each strain was stored as a frozen glycerol stock at -80°C. A bacterial colony was grown on the appropriate agar as indicated in Table S1 and was used to inoculate the appropriate broth. The culture was incubated at the appropriate conditions, as mentioned in Table S1. Following the incubation, the culture was diluted to an optical density 625 nm (OD625) of 0.1 in cation adjusted Mueller Hinton Broth (CAMHB), which is equivalent to 1 × 10^8 CFU/mL. The culture was further diluted to 1 × 10^6 CFU/mL, which was used to conduct the MIC determination assay. For the S. pneumoniae strains, CAMHB + 2.5% lysed horse blood was required for the assay. The strains with their […]
(§3) Table S3. Description of the characteristics and growth conditions of various bacterial strains

Substance | MIC, S. aureus (ATCC 29213)
RWRRWWR-NH2 [1a] | 100 µg/mL
RWWRAAWRR-NH2 [3d] | > 100 µg/mL
RWWRRAWR-NH2 [2b] | > 100 µg/mL
RWWRRAWRA-NH2 [3a] | > 100 µg/mL
RWWRRAWRAA-NH2 [4c] | > 100 µg/mL
WRRWARRW-NH2 [2d] | > 100 µg/mL

Same assay, conditions: value in parentheses (μM); broth microdilution (CLSI), CAMHB, 37 °C, 24 h

Substance | MIC, S. aureus (ATCC 29213)
RWRRWWR-NH2 [1a] | 83.30 µM
RWWRAAWRR-NH2 [3d] | > 74.48 µM
RWWRRAWR-NH2 [2b] | > 78.65 µM
RWWRRAWRA-NH2 [3a] | > 74.48 µM
RWWRRAWRAA-NH2 [4c] | > 70.74 µM
WRRWARRW-NH2 [2d] | > 78.65 µM

System: E. coli (ATCC 25922)
Assay: not given
Conditions: broth microdilution (CLSI), CAMHB, 10^6 CFU/mL, 37 °C, 24 h; highest MIC of three independent experiments in triplicate
Method: as §1, §2, §3

Substance | MIC, E. coli (ATCC 25922)
RWRRWWR-NH2 [1a] | > 100 µg/mL
RWWRAAWRR-NH2 [3d] | > 100 µg/mL
RWWRRAWR-NH2 [2b] | > 100 µg/mL
RWWRRAWRA-NH2 [3a] | > 100 µg/mL
RWWRRAWRAA-NH2 [4c] | > 100 µg/mL
WRRWARRW-NH2 [2d] | > 100 µg/mL

Same assay, conditions: value in parentheses (μM); broth microdilution (CLSI), CAMHB, 37 °C, 24 h

Substance | MIC, E. coli (ATCC 25922)
RWRRWWR-NH2 [1a] | > 83.30 µM
RWWRAAWRR-NH2 [3d] | > 74.48 µM
RWWRRAWR-NH2 [2b] | > 78.65 µM
RWWRRAWRA-NH2 [3a] | > 74.48 µM
RWWRRAWRAA-NH2 [4c] | > 70.74 µM
WRRWARRW-NH2 [2d] | > 78.65 µM

System: MRSA (ATCC BAA-1556)
Assay: not given
Conditions: broth microdilution (CLSI), CAMHB, 10^6 CFU/mL, 37 °C, 24 h; highest MIC of three independent experiments in triplicate
Method: as §1, §2, §3

Substance | MIC, MRSA (ATCC BAA-1556)
RWRRWWR-NH2 [1a] | 100 µg/mL
RWWRAAWRR-NH2 [3d] | > 100 µg/mL
RWWRRAWR-NH2 [2b] | > 100 µg/mL
RWWRRAWRA-NH2 [3a] | > 100 µg/mL
RWWRRAWRAA-NH2 [4c] | > 100 µg/mL
WRRWARRW-NH2 [2d] | > 100 µg/mL

Same assay, conditions: value in parentheses (μM); broth microdilution (CLSI), CAMHB, 37 °C, 24 h

Substance | MIC, MRSA (ATCC BAA-1556)
RWRRWWR-NH2 [1a] | 83.30 µM
RWWRAAWRR-NH2 [3d] | > 74.48 µM
RWWRRAWR-NH2 [2b] | > 78.65 µM
RWWRRAWRA-NH2 [3a] | > 74.48 µM
RWWRRAWRAA-NH2 [4c] | > 70.74 µM
WRRWARRW-NH2 [2d] | > 78.65 µM

System: P. aeruginosa (ATCC 27883)
Assay: MIC, standard microtiter dilution (CLSI)
Format: cell-based, Pseudomonas aeruginosa
Conditions: broth microdilution (CLSI), CAMHB, 10^6 CFU/mL, 37 °C, 24 h; highest MIC of three independent experiments in triplicate
Method: as §1, §2, §3

Substance | MIC, P. aeruginosa (ATCC 27883)
RWRRWWR-NH2 [1a] | > 100 µg/mL
RWWRAAWRR-NH2 [3d] | > 100 µg/mL
RWWRRAWR-NH2 [2b] | > 100 µg/mL
RWWRRAWRA-NH2 [3a] | > 100 µg/mL
RWWRRAWRAA-NH2 [4c] | > 100 µg/mL
WRRWARRW-NH2 [2d] | > 100 µg/mL

Same assay, conditions: value in parentheses (μM); broth microdilution (CLSI), CAMHB, 37 °C, 24 h

Substance | MIC, P. aeruginosa (ATCC 27883)
RWRRWWR-NH2 [1a] | > 83.30 µM
RWWRAAWRR-NH2 [3d] | > 74.48 µM
RWWRRAWR-NH2 [2b] | > 78.65 µM
RWWRRAWRA-NH2 [3a] | > 74.48 µM
RWWRRAWRAA-NH2 [4c] | > 70.74 µM
WRRWARRW-NH2 [2d] | > 78.65 µM

System: K. pneumoniae (ATCCBAA-1705)
Assay: MIC, standard microtiter dilution (CLSI)
Format: cell-based, Klebsiella pneumoniae
Conditions: broth microdilution (CLSI), CAMHB, 10^6 CFU/mL, 37 °C, 24 h; highest MIC of three independent experiments in triplicate
Method: as §1, §2, §3

Substance | MIC, K. pneumoniae (ATCCBAA-1705)
RWRRWWR-NH2 [1a] | > 100 µg/mL
RWWRAAWRR-NH2 [3d] | > 100 µg/mL
RWWRRAWR-NH2 [2b] | > 100 µg/mL
RWWRRAWRA-NH2 [3a] | > 100 µg/mL
RWWRRAWRAA-NH2 [4c] | > 100 µg/mL
WRRWARRW-NH2 [2d] | > 100 µg/mL

Same assay, conditions: value in parentheses (μM); broth microdilution (CLSI), CAMHB, 37 °C, 24 h

Substance | MIC, K. pneumoniae (ATCCBAA-1705)
RWRRWWR-NH2 [1a] | > 83.30 µM
RWWRAAWRR-NH2 [3d] | > 74.48 µM
RWWRRAWR-NH2 [2b] | > 78.65 µM
RWWRRAWRA-NH2 [3a] | > 74.48 µM
RWWRRAWRAA-NH2 [4c] | > 70.74 µM
WRRWARRW-NH2 [2d] | > 78.65 µM

System: human red blood cells (hRBCs)
Assay: Hemolytic assay
Format: cell-based
Conditions: hRBC suspension 4% in PBS, 2 h, 37 °C, hemoglobin release at 567 nm; 1% Triton X-100 = 100%
Method: The hemolytic activity of all peptides (1a–8d) was determined using hRBC. The assay was conducted by adding 75 μL of 2-fold serially diluted peptides to 75 μL of hRBC suspension (4% in PBS). The plates were incubated for 2 h at 37 °C without agitation. In order to determine the hemolysis at each tested concentration of peptides, the plate was centrifuged, and 100 μL of the supernatant was transferred to another 96-well plate to determine hemoglobin release spectrophotometrically at 567 nm. Percent hemolysis was calculated by the following formula [drawing 1] where A represents the absorbance of the peptide sample at 567 nm and A0 and At represent zero percent and 100% hemolysis determined in phosphate buffer saline and 1% Triton X-100, respectively.

Substance | HC50 (concentration at which 50% hemolysis was observed)
RWRRWWR-NH2 [1a] | > 500 µg/mL
RWWRAAWRR-NH2 [3d] | > 500 µg/mL
RWWRRAWR-NH2 [2b] | > 500 µg/mL
RWWRRAWRA-NH2 [3a] | > 500 µg/mL
RWWRRAWRAA-NH2 [4c] | > 500 µg/mL
WRRWARRW-NH2 [2d] | > 500 µg/mL

Same assay, conditions: value in parentheses (μM); hRBC 4% in PBS, 2 h, 37 °C, 567 nm

Substance | HC50 (concentration at which 50% hemolysis was observed)
RWRRWWR-NH2 [1a] | > 416.52 µM
RWWRAAWRR-NH2 [3d] | > 372.42 µM
RWWRRAWR-NH2 [2b] | > 393.23 µM
RWWRRAWRA-NH2 [3a] | > 372.42 µM
RWWRRAWRAA-NH2 [4c] | > 353.69 µM
WRRWARRW-NH2 [2d] | > 393.23 µM
